Data from PubChem BioAssay (NCI).
Where “and” joins values, the source holds several entries; their conditions need not be identical. Identical values can stand only once.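 Following 48 hours of exposure in 96-well plates, responses at five concentrations were used to interpolate endpoints linearly. GI50 is the concentration that inhibits growth by half. At the TGI there is no net growth.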

What was measured:
Experiment in all cases: DTP human tumour cell line panel, 48 h
[1] = system: SF-539 CNS
[2] = system: SF-295 CNS
[3] = system: K-562 leukemia
[4] = system: MDA-MB-435
[5] = system: OVCAR-5 ovarian
[6] = system: UACC-62 melanoma
[7] = system: A549 NSCLC
[8] = system: IGROV1 ovarian
[9] = system: CAKI-1 renal
[10] = system: LOX IMVI melanoma
[11] = system: SK-OV-3 ovarian
[12] = system: MALME-3M melanoma
[13] = system: OVCAR-3 ovarian
[14] = system: COLO 205 colon

Structure (SMILES) | TGI [1] | TGI [2] | TGI [3] | TGI [4] | TGI [5] | TGI [6] | TGI [7] | TGI [8] | TGI [9] | TGI [10] | TGI [11] | TGI [12] | TGI [13] | TGI [14] | GI50 [3] | GI50 [5] | GI50 [6] | GI50 [12] | GI50 [13] | GI50 [14]
Nc1ccccc1CCCC(=O)O | > 100 µM | > 100 µM | > 100 µM | > 100 µM | > 100 µM | > 100 µM | > 100 µM | > 100 µM | > 100 µM | > 100 µM | > 100 µM | > 100 µM | > 100 µM | > 100 µM | – | – | – | – | – | –
CC1=C(C)C(=O)O[C@@H]([C@](C)(O)[C@]2(O)CC[C@@]3(O)[C@@H]4C[C@H]5O[C@]56[C@@H](O)C=CC(=O)[C@]6(C)[C@H]4CC[C@]23C)C1 | 6.13 µM | 19.5 µM | 2.62 µM and 15 µM | – | 8.44 µM and 5.88 µM | 3.41 µM and 3 µM | 24 µM and 30.9 µM | 9.53 µM and 6.51 µM | – | 2.64 µM | 14.7 µM and 20.4 µM | 2.27 µM and 2.66 µM | 1.64 µM and 0.359 µM | 0.436 µM and 0.255 µM | 0.126 µM and 0.0515 µM | 3.55 µM and 1.47 µM | 0.288 µM and 0.0848 µM | 0.411 µM | 0.136 µM and 0.0594 µM | 0.0847 µM and 0.0461 µM
O=c1[nH]c(Nc2ccc(F)c(Cl)c2)nc2nc[nH]c12 | > 100 µM | > 100 µM | – | > 100 µM | > 100 µM | > 100 µM | > 100 µM | > 100 µM | > 100 µM | > 100 µM | > 100 µM | > 100 µM | > 100 µM | > 100 µM | – | – | – | – | – | –
S=C1SC(=Nc2ccccc2)C(=Nc2ccccc2)N1c1ccccc1 | – | > 100 µM | > 100 µM | > 100 µM | > 100 µM | > 100 µM | – | > 100 µM | > 100 µM | – | > 100 µM | > 100 µM | > 100 µM | > 100 µM | – | – | – | – | – | –
CC(C)=CC1C(COC(=O)c2cc3c(cc2Cl)OCO3)C1(C)C (configuration not stated) | – | > 100 µM | > 100 µM | > 100 µM | > 100 µM | > 100 µM | > 100 µM | > 100 µM | 69.7 µM | 50 µM | – | 41.6 µM | 65.1 µM | – | – | – | – | – | – | –
